One test concerns the target T1, PI3K delta (Homo sapiens, UniProt O00329).
T1 construct: purchased Millipore, Billerica, MA, USA
Nature of the test: Luciferase-based luminescence assay (KinaseGlo), PI3K delta enzymatic activity. The class given is biochemical. Particulars: for IC50: inhibition of enzymatic activity, KinaseGlo, 25 μM ATP, read-out: IC50 p110δ; for α/δ ratio: ratio of enzymatic IC50 against PI3Kα over IC50 against PI3Kδ; for β/δ ratio / γ/δ ratio: ratio of enzymatic IC50 values, Table 1. The method in brief: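 KinaseGlo luminescence measured ATP remaining after PIP2 (50 μM) phosphorylation with 25 μM ATP in HEPES pH 7.5 buffer with CHAPS and DTT. Final enzyme was 1.65 nM alpha (1 h reaction) or 6.86 nM delta (2 h reaction). IC50 was curve-fitted from 10 concentrations.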
A general note: Kinase-Glo measures the ATP left after a reaction by luminescence.

The target of a further test is T2, PI3Kδ (Homo sapiens, UniProt O00329).
T2 construct: endogenous in cells; host or cells: Raji (ATCC #CCL-86)
T2 sequence (O00329 whole entry): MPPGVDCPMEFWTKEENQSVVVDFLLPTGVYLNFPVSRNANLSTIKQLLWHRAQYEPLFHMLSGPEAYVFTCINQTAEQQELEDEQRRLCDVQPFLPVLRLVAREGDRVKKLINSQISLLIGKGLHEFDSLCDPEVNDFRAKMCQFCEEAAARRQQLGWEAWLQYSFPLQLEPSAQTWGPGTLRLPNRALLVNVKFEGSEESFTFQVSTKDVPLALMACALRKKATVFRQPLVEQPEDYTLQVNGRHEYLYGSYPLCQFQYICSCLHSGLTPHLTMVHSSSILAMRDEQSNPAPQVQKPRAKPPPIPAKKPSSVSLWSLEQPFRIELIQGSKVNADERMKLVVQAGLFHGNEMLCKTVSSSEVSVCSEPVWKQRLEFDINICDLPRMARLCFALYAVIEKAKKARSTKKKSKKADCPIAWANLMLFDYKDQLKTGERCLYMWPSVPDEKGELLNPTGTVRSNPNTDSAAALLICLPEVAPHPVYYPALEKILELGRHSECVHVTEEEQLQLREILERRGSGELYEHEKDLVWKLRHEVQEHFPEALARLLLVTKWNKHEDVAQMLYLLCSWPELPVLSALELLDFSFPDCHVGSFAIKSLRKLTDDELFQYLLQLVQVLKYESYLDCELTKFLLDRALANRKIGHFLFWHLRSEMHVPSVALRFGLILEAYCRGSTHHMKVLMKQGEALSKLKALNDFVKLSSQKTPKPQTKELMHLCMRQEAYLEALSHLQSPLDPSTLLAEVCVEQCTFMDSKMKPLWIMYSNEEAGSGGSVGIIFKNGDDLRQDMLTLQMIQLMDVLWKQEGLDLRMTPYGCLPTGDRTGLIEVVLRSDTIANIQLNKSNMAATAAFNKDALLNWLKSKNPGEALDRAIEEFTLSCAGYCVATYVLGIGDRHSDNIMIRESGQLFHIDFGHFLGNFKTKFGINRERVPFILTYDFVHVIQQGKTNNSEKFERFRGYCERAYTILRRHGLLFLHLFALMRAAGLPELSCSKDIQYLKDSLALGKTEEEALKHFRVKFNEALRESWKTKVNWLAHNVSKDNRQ
T2 sequence (P27986 whole entry partner): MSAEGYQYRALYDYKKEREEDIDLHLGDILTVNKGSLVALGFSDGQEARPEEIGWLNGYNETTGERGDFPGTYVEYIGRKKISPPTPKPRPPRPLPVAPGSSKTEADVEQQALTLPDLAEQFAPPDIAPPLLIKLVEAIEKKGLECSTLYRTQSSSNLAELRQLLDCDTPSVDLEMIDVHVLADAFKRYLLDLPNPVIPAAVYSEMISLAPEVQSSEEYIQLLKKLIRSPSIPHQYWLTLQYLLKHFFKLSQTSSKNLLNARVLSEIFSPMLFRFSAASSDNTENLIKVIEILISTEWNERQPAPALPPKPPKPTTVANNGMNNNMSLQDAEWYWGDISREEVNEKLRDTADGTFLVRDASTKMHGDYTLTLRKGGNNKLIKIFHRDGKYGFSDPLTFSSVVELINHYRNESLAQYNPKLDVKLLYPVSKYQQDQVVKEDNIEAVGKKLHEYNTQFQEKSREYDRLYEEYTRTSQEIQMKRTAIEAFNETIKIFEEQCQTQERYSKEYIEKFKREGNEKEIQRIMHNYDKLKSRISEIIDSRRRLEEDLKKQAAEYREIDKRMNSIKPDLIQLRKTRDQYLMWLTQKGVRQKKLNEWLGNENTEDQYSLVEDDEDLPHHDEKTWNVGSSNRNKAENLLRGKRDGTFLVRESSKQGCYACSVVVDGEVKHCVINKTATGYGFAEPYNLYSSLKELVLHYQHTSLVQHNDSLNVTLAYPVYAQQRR
Put plainly: ELISA assay for PI3Kδ: sandwich ELISA, phosphorylation of AKT (Thr308) in Raji cells. It counts as cell-based. Particulars: for IC50: cellular, pAKT (Thr308), Raji cells, anti-Human IgM stimulation, read-out: IC50 p110δ; for α/δ ratio / β/δ ratio / γ/δ ratio: ratio of cellular IC50 values, Table 2. In a few lines: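 Raji cells, serum-starved 2 hrs, treated with compound (10 concentrations) for 2 hrs at 37° C, then stimulated 30 min with anti-human IgM. Lysates analysed by sandwich ELISA for pAKT Thr308 and total AKT with luminescent read-out. IC50 from curve fitting.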
(In general: An ELISA detects its analyte on a solid surface through an enzyme-linked reagent.)

Structures are written as SMILES.

As a reminder, the IC50 is the midpoint of a concentration-inhibition curve.

T1 sequence (O00329 whole entry, species assumed): as the sequence (O00329 whole entry) above
T1 sequence (P27986 whole entry partner, species assumed): as the sequence (P27986 whole entry partner) above

For `Cc1ccccc1-c1ccccc1CC(C)(C)Nc1nc(N2CCOCC2)nc(-n2c(C(F)F)nc3ccccc32)n1` [Compound A60, 4-(2-(difluoromethyl)-1H-benzo[d]imidazol-1-yl)-N-(2-methyl-1-(2′-methylbiphenyl-2-yl)propan-2-yl)-6-morpholino-1,3,5-triazin-2-amine], on PI3K delta, the IC50 is ≤ 100 nM, the α/δ ratio entry is “A’”, the β/δ ratio result is given as “D’” and the γ/δ ratio result is “A’”. On PI3Kδ, the IC50 is ≤ 100 nM, the α/δ ratio result is reported as “A’”, the β/δ ratio entry is recorded as “A’” and the γ/δ ratio entry is listed as “A’”.

Regarding `CC(C)(Cc1ccccc1-c1ccccc1Cl)Nc1nc(N2CCOCC2)nc(-n2c(C(F)F)nc3ccccc32)n1` [Compound A61, 4-(2-(difluoromethyl)-1H-benzo[d]imidazol-1-yl)-N-(1-(6′-chlorobiphenyl-2-yl)-2-methylpropan-2-yl)-6-morpholino-1,3,5-triazin-2-amine], on PI3K delta, the IC50 is ≤ 100 nM, the α/δ ratio result is “A’”, the β/δ ratio entry was “D’” and the γ/δ ratio result is “A’”. Further, on PI3Kδ, the IC50 is ≤ 100 nM, the α/δ ratio result was “A’”, the β/δ ratio result was “A’” and the γ/δ ratio result is “A’”.

As for `CC(C)(Cc1ccccc1-c1cccnc1F)Nc1nc(N2CCOCC2)nc(-n2c(C(F)F)nc3ccccc32)n1` [Compound A62], on PI3K delta, the IC50 is ≤ 100 nM, the α/δ ratio entry is on record as “A’”, the β/δ ratio result was “A’” and the γ/δ ratio result is listed as “A’”. At PI3Kδ, the IC50 was ≤ 100 nM, the α/δ ratio entry is recorded as “A’”, the β/δ ratio entry was “A’” and the γ/δ ratio entry is “A’”.

As to `CC(C)(Cc1ccccc1-c1cncnc1)Nc1nc(N2CCOCC2)nc(-n2c(C(F)F)nc3ccccc32)n1` [Compound A63, 4-(2-(difluoromethyl)-1H-benzo[d]imidazol-1-yl)-N-(2-methyl-1-(2-(pyrimidin-5-yl)phenyl)propan-2-yl)-6-morpholino-1,3,5-triazin-2-amine], on PI3K delta, the 50% inhibitory concentration (IC50) was ≤ 100 nM, the α/δ ratio entry is “A’”, the β/δ ratio entry is on record as “A’” and the γ/δ ratio entry is reported as “A’”. At PI3Kδ, the IC50 is ≤ 100 nM, the α/δ ratio entry is “A’”, the β/δ ratio result is given as “A’” and the γ/δ ratio result is “A’”.

On to `CN1CCN(c2cc(-c3ccccc3CC(C)(C)Nc3nc(N4CCOCC4)nc(-n4c(C(F)F)nc5ccccc54)n3)ccn2)CC1` [Compound A64, 4-(2-(difluoromethyl)-1H-benzo[d]imidazol-1-yl)-N-(2-methyl-1-(2-(2-(4-methylpiperazin-1-yl)pyridin-4-yl)phenyl)propan-2-yl)-6-morpholino-1,3,5-triazin-2-amine], for which, at PI3K delta, the IC50 was ≤ 100 nM, the α/δ ratio result is reported as “A’”, the β/δ ratio result was “D’” and the γ/δ ratio entry was “A’”. In addition, on PI3Kδ, the IC50 was ≤ 100 nM, the α/δ ratio entry is “A’”, the β/δ ratio entry is listed as “A’” and the γ/δ ratio entry is “A’”.

Turning to `CC(C)(Cc1ccccc1-c1cccc(CN2CCOCC2)c1)Nc1nc(N2CCOCC2)nc(-n2c(C(F)F)nc3ccccc32)n1` [Compound A65, 4-(2-(difluoromethyl)-1H-benzo[d]imidazol-1-yl)-N-(2-methyl-1-(3′-(morpholinomethyl)biphenyl-2-yl)propan-2-yl)-6-morpholino-1,3,5-triazin-2-amine], at PI3K delta, the IC50 is ≤ 100 nM, the α/δ ratio entry was “A’”, the β/δ ratio result is listed as “D’” and the γ/δ ratio result is listed as “D’”. Also, on PI3Kδ, the IC50 is ≤ 100 nM, the α/δ ratio entry is given as “A’”, the β/δ ratio result is “B’” and the γ/δ ratio result is reported as “A’”.

Take `COc1cccc(-c2ccccc2CC(C)(C)Nc2nc(N3CCOCC3)nc(-n3c(C(F)F)nc4ccccc43)n2)c1` [Compound A66, 4-(2-(difluoromethyl)-1H-benzo[d]imidazol-1-yl)-N-(1-(3′-methoxybiphenyl-2-yl)-2-methylpropan-2-yl)-6-morpholino-1,3,5-triazin-2-amine]: at PI3K delta, the IC50 is ≤ 100 nM, the α/δ ratio entry is recorded as “A’”, the β/δ ratio entry is recorded as “A’” and the γ/δ ratio result is “A’”. In addition, at PI3Kδ, the IC50 was ≤ 100 nM, the α/δ ratio entry is listed as “A’”, the β/δ ratio result is recorded as “A’” and the γ/δ ratio entry was “A’”.

As for `COc1ccc(-c2ccccc2CC(C)(C)Nc2nc(N3CCOCC3)nc(-n3c(C(F)F)nc4ccccc43)n2)cc1` [Compound A67, 4-(2-(difluoromethyl)-1H-benzo[d]imidazol-1-yl)-N-(1-(4′-methoxybiphenyl-2-yl)-2-methylpropan-2-yl)-6-morpholino-1,3,5-triazin-2-amine], on PI3K delta, the half-maximal inhibitory concentration (IC50) was ≤ 100 nM, the α/δ ratio entry was “A’”, the β/δ ratio entry is recorded as “B’” and the γ/δ ratio entry is listed as “A’”. Further, at PI3Kδ, the IC50 was ≤ 100 nM, the α/δ ratio entry is “A’”, the β/δ ratio entry is given as “A’” and the γ/δ ratio result was “A’”.

In the case of `CC(C)(Cc1ccccc1C1CCNCC1)Nc1nc(N2CCOCC2)nc(-n2c(C(F)F)nc3ccccc32)n1` [Compound A68, 4-(2-(difluoromethyl)-1H-benzo[d]imidazol-1-yl)-N-(2-methyl-1-(2-(piperidin-4-yl)phenyl)propan-2-yl)-6-morpholino-1,3,5-triazin-2-amine], at PI3K delta, the IC50 was ≤ 100 nM, the α/δ ratio entry is listed as “A’”, the β/δ ratio entry is reported as “A’” and the γ/δ ratio result is reported as “A’”. Moreover, on PI3Kδ, the IC50 is ≤ 100 nM, the α/δ ratio result is “A’”, the β/δ ratio result is listed as “A’” and the γ/δ ratio result is “A’”.

For the molecule `CCN1CCC(c2ccccc2CC(C)(C)Nc2nc(N3CCOCC3)nc(-n3c(C(F)F)nc4ccccc43)n2)CC1` [Compound A70, 4-(2-(difluoromethyl)-1H-benzo[d]imidazol-1-yl)-N-(1-(2-(1-ethylpiperidin-4-yl)phenyl)-2-methylpropan-2-yl)-6-morpholino-1,3,5-triazin-2-amine], at PI3K delta, the IC50 was ≤ 100 nM, the α/δ ratio result is “A’”, the β/δ ratio entry is “A’” and the γ/δ ratio entry is “A’”. On PI3Kδ, the IC50 was ≤ 100 nM, the α/δ ratio result is reported as “A’”, the β/δ ratio result is on record as “A’” and the γ/δ ratio result was “A’”.

As for `CC(C)N1CCC(c2ccccc2CC(C)(C)Nc2nc(N3CCOCC3)nc(-n3c(C(F)F)nc4ccccc43)n2)CC1` [Compound A71, 4-(2-(difluoromethyl)-1H-benzo[d]imidazol-1-yl)-N-(1-(2-(1-isopropylpiperidin-4-yl)phenyl)-2-methylpropan-2-yl)-6-morpholino-1,3,5-triazin-2-amine], at PI3K delta, the IC50 is ≤ 100 nM, the α/δ ratio result is reported as “A’”, the β/δ ratio entry is given as “A’” and the γ/δ ratio result was “A’”. Also, at PI3Kδ, the IC50 was ≤ 100 nM, the α/δ ratio result is given as “A’”, the β/δ ratio entry is listed as “A’” and the γ/δ ratio result is “A’”.

In the case of `CC(=O)N1CCC(c2ccccc2CC(C)(C)Nc2nc(N3CCOCC3)nc(-n3c(C(F)F)nc4ccccc43)n2)CC1` [Compound A72, 4-(2-(difluoromethyl)-1H-benzo[d]imidazol-1-yl)-N-(2-methyl-1-(2-(1-acetylpiperidin-4-yl)phenyl)propan-2-yl)-6-morpholino-1,3,5-triazin-2-amine], on PI3K delta, the IC50 is ≤ 100 nM, the α/δ ratio result is listed as “A’”, the β/δ ratio result is recorded as “D’” and the γ/δ ratio result is “C’”. Further, on PI3Kδ, the IC50 was ≤ 100 nM, the α/δ ratio entry is “A’”, the β/δ ratio entry is “A’” and the γ/δ ratio result is reported as “A’”.

`CC(C)(Cc1ccccc1C1CCN(S(C)(=O)=O)CC1)Nc1nc(N2CCOCC2)nc(-n2c(C(F)F)nc3ccccc32)n1` [Compound A73, 4-(2-(difluoromethyl)-1H-benzo[d]imidazol-1-yl)-N-(2-methyl-1-(2-(1-(methylsulfonyl)piperidin-4-yl)phenyl)propan-2-yl)-6-morpholino-1,3,5-triazin-2-amine]: at PI3K delta, the IC50 is ≤ 100 nM, the α/δ ratio entry is given as “A’”, the β/δ ratio entry is “D’” and the γ/δ ratio result was “B’”. Moreover, at PI3Kδ, the IC50 is ≤ 100 nM, the α/δ ratio result was “A’”, the β/δ ratio result is listed as “C’” and the γ/δ ratio entry is recorded as “A’”.

As for `CC(C)(Cc1ccccc1C1CCNC1)Nc1nc(N2CCOCC2)nc(-n2c(C(F)F)nc3ccccc32)n1` (stereo not shown) [Compound A74, 4-(2-(difluoromethyl)-1H-benzo[d]imidazol-1-yl)-N-(2-methyl-1-(2-(pyrrolidin-3-yl)phenyl)propan-2-yl)-6-morpholino-1,3,5-triazin-2-amine], at PI3K delta, the half-inhibitory concentration (IC50) was ≤ 100 nM, the α/δ ratio entry is “A’”, the β/δ ratio entry is “A’” and the γ/δ ratio result is on record as “A’”. Moreover, at PI3Kδ, the IC50 was ≤ 100 nM, the α/δ ratio result is “A’”, the β/δ ratio result was “C’” and the γ/δ ratio entry is “A’”.

For the origin of these results see patent US12059422B2 (MEI Pharma, Inc., priority 2011, dated 2024).
